Patent publication US12571793B2, “Method for evaluating biofilm formation, and invertebrate for use in evaluating biofilm formation” (MEIJI PHARMACEUTICAL UNIVERSITY, priority 2020, dated 2026)

System: C. albicans strain SC5314
Assay: Test Example 5: suppression effect of antifungal drugs on biofilm formation on polyurethane fibers in silkworms, drug given 12 hours after inoculation
Type: in vivo, Candida albicans (in silkworm)
Conditions: antifungal drug administered 12 hours after inoculation of C. albicans; fibers extracted 24 hours after inoculation; compared with physiological saline
Protocol: Biofilms formed on the surface of the polyurethane fibers after the culture were stained with crystal violet, and the biofilms were quantified. The biofilms were stained as follows. Each of the polyurethane fibers were moved to a 1.5-ml tube and washed with 1 ml of distilled water twice. Then, 500 μl of an aqueous 0.1% crystal violet solution was added, and the polyurethane fiber was placed at room temperature for 20 to 60 minutes. The stain solution was discarded, and the polyurethane fiber were washed with 1 ml of distilled water 3 times. The polyurethane fibers were washed with 1 ml of ethanol twice and then air-dried. The polyurethane fibers were observed under a microscope (×10, CH30, Olympus Corporation), and photographs were taken. Then, 500 μl of 33% acetic acid solution was added, and the polyurethane fibers were left to stand at room temperature for 2 hours or more. The absorbance (OD590) of the sample to which 500 μl of distilled water was added to adjust the total volume to 1 ml was measured.
Next, it was examined whether biofilms by C. albicans were formed on the surface of the polyurethane fibers in the bodies of silkworms. Silkworms in which the polyurethane fibers were inserted were inoculated with 50 μl of physiological saline solution (saline) or 50 μl of a suspension of C. albicans strain SC5314 (7×10^7 cells/ml) and bred at 27° C. for 24 hours. […]

SMILES: C[C@@H]1[C@H](O)[C@@H](C)/C=C/C=C/C=C/C=C/C=C/C=C/C=C/[C@H](O[C@@H]2O[C@H](C)[C@@H](O)[C@H](N)[C@@H]2O)C[C@@H]2O[C@](O)(C[C@@H](O)C[C@@H](O)[C@H](O)CC[C@@H](O)C[C@@H](O)CC(=O)O[C@H]1C)C[C@H](O)[C@H]2C(=O)O [amphotericin B]
- biofilm formation on the polyurethane fiber in the bodies of the silkworms (crystal violet, absorbance 590 nm): significantly suppressed
